Results: ChEMBL document CHEMBL1201862, “PubChem BioAssay data set” (2004)
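Tested at 5 concentrations; 48 h exposure; 96-well plates; endpoints linearly interpolated, else capped at highest concentration. GI50: concentration for 50% inhibition of growth.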 Activity calls are given as the source filed them. Cut-off read from the data, not from the text of the source: active = GI50 up to about 1.1 µM and inactive = higher.

Assays:
Test in all cases: inhibition of tumour cell growth, NCI panel, 48 h
786-0 = tested on: 786-0
NCI-H226 = tested on: NCI-H226
OVCAR-8 = tested on: OVCAR-8
CAKI-1 = tested on: CAKI-1
SNB-75 = tested on: SNB-75
EKVX = tested on: EKVX
NCI-H23 = tested on: NCI-H23
BT-549 = tested on: BT-549
TK-10 = tested on: TK-10
IGROV-1 = tested on: IGROV-1
PC-3 = tested on: PC-3
MCF7 = tested on: MCF7
CCRF-CEM = tested on: CCRF-CEM
SK-MEL-2 = tested on: SK-MEL-2
UACC-257 = tested on: UACC-257
HT-29 = tested on: HT-29
M14 = tested on: M14
UACC-62 = tested on: UACC-62
KM12 = tested on: KM12

Measured: GI50

O=C(O)COc1cc(-c2ccccc2)nc2ccccc12
inactive: 786-0 81.8 µM | NCI-H226 > 100 µM | OVCAR-8 > 100 µM | CAKI-1 > 100 µM | SNB-75 41.5 µM | EKVX > 100 µM | NCI-H23 77.6 µM | BT-549 > 100 µM | TK-10 > 100 µM | IGROV-1 56.4 µM | PC-3 > 100 µM | MCF7 49 µM | CCRF-CEM 56.2 µM | SK-MEL-2 > 100 µM | UACC-257 > 100 µM | HT-29 35.4 µM | M14 71 µM | UACC-62 > 10 µM | KM12 50.1 µM

CCOC(=O)c1c(O)nc(O)c(CC)c1C
inactive: 786-0 > 100 µM | NCI-H226 > 100 µM | OVCAR-8 > 100 µM | CAKI-1 > 100 µM | SNB-75 > 100 µM | EKVX > 100 µM | NCI-H23 > 100 µM | BT-549 > 100 µM | TK-10 > 100 µM | IGROV-1 > 100 µM | PC-3 > 100 µM | MCF7 > 100 µM | CCRF-CEM > 100 µM | SK-MEL-2 > 100 µM | UACC-257 > 100 µM | HT-29 > 100 µM | M14 > 100 µM | UACC-62 > 100 µM | KM12 > 100 µM

CCCCCCOC(=O)C(N)Cc1ccc(OC)cc1 (stereo unspecified)
inactive: 786-0 > 100 µM | NCI-H226 > 100 µM | OVCAR-8 > 100 µM | CAKI-1 > 100 µM | SNB-75 > 100 µM | EKVX > 100 µM | NCI-H23 > 100 µM | BT-549 > 100 µM | TK-10 > 100 µM | IGROV-1 > 100 µM | PC-3 > 100 µM | MCF7 > 100 µM | CCRF-CEM 26.6 µM | SK-MEL-2 > 100 µM | UACC-257 > 100 µM | HT-29 > 100 µM | M14 > 100 µM | UACC-62 > 100 µM | KM12 > 100 µM

c1ccc2c(c1)SC1=C(SC(=C3SC4=C(S3)Sc3ccccc3S4)S1)S2
inactive: 786-0 91 µM | NCI-H226 > 100 µM | OVCAR-8 > 100 µM | CAKI-1 > 100 µM | SNB-75 49.4 µM | EKVX > 100 µM | NCI-H23 > 100 µM | BT-549 > 100 µM | TK-10 > 100 µM | IGROV-1 > 100 µM | PC-3 > 100 µM | MCF7 > 100 µM | CCRF-CEM > 100 µM | SK-MEL-2 > 100 µM | UACC-257 > 100 µM | HT-29 > 100 µM | M14 > 100 µM | UACC-62 > 100 µM | KM12 > 100 µM
